# According to patent publication US20060040944A1, “5-Aza-7-deazapurine derivatives for treating Flaviviridae” (priority 2004, published 2006):
# pEC50: −log10 of the molar value. Like-named read-outs stand apart in the source and are kept apart here.
# Assays:
# Yellow Fever = assay: microbe, parasite or virus in culture; type: cell-based, Yellow fever virus, vaccine strain 17D (YFV-17D)
# MT-4 = MT-4 cell test (Table 2); type: cell-based; settings: MT-4 cells, no virus named
# [1] = test system: host cells of the DENV-2 test (not named); assay: Cytotoxicity assay (CC50), DENV-2 column; settings: read-out: DENV-2 CC50; concentration reducing cell number by 50%; cell line not named
# DENV-2 = assay: Antiviral activity against DENV-2 (Table 2)
# [2] = test system: host cells of the West Nile test (not named); assay: Cytotoxicity assay (CC50), West Nile column; settings: read-out: West Nile CC50; concentration reducing cell number by 50%; cell line not named
# West Nile = assay: Antiviral activity against West Nile virus (Table 2); settings: read-out: West Nile EC50
# BVDV = assay: microbe, parasite or virus in culture; type: cell-based; settings: Bovine viral diarrhea virus isolates and strains, MDBK, read-out: BVDV EC50
# in vitro [3] = settings: hamster
# in vitro [4] = settings: cattle (Bos taurus)
# [5] = Cytotoxicity assay (CC50), DENV-2 column
# [6] = Cytotoxicity assay (CC50), West Nile column
SMILES,pEC50 (Yellow Fever; read-out: Yellow Fever EC50),pEC50 (MT-4),CC50 (BHK-21 cells),CC50 (BT cells),CC50 [1],"pEC50 (DENV-2; read-out: DENV-2 EC50, DENV-2)",CC50 [2],pEC50 (West Nile),"pEC50 (Yellow Fever; Yellow fever virus, BHK-21, read-out: Yellow Fever EC50)",pEC50 (BVDV),"pEC50 (MT-4; Homo sapiens, MT4)",CC50 (in vitro [3]),CC50 (in vitro [4]),CC50 at 4 days [5],"pEC50 (DENV-2; Dengue virus, DENV2, read-out: DENV-2 EC50)",CC50 at 4 days [6]
"Nc1nc(=O)n2ccn([C@H]3C[C@H](O)[C@@H](CO)O3)c2n1 [2-amino-8-(β-D-2-deoxyribo-furanosyl)-imidazo[1,2-a]-s-triazin-4-one]",< 4.00,< 4.00,> 100 µM,> 100 µM,> 100 µM,< 4.00,> 100 µM,< 4.00,–,–,–,–,–,–,–,–
"Nc1nc(=O)n2ccn([C@@H]3O[C@H](CO)[C@@H](O)[C@H]3O)c2n1 [2-amino-8-(β-D-ribo-furanosyl)-imidazo[1,2-a]-s-triazin-4-one]",–,–,–,–,–,–,–,< 4.00,< 4.00,4.51,< 4.00,> 100 µM,> 100 µM,> 100 µM,< 4.00,> 100 µM
